Assay results published in patent publication US10213451B2, “Methods and compounds for modulating the secretion or expression of adhesion proteins or angiopoietins of cells” (PACIFIC ARROW LIMITED, priority 2004, dated 2019).
Converted amounts (≈) assume the structure as drawn.

Tests used:
(lung)H460 cells = experiment: MTT assay H460; format: cell-based; details: Homo sapiens, NCI-H460
Description: Cells. Human cancer cell lines were obtained from American Type Culture Collection: HTB-9 (bladder), HeLa-S3 (cervix), DU145 (prostate), H460 (lung), MCF-7 (breast), K562 (leukocytes), HCT116 (colon), HepG2 (liver), U2OS (bone), T98G (brain), SK-MEL-5 (Skin) and OVCAR-3 (ovary). The cells were grown in following culture media: HeLa-53, DU145, MCF-7, Hep-G2 and T98G are in MEN (Earle's salts); HTB-9, H460, K562 and OVCAR-3 in RPMI-1640; HCT-116 and U2OS in McCoy-5A. They are supplemented with 10% fetal calf serum, glutamine and antibiotics, and incubated in an incubator with 5% CO2 humidified at 37° C.
MTT Assay. The procedure for MTT assay followed the method described by Carmichael et al. (1987) with modifications. […] The formazan (product of the reduction of tetrazolium by viable cells) formed and was dissolved with DMSO and the O.D. at 490 nm, and was measured by an ELISA reader. The MTT level of the cells before drug-treatment was also measured (T0). The % cell-growth (% G) is calculated as: % G=(TD−T0/TC−T0)×100(1), where TC or TD represents O.D. readings of control or drug-treated cells. When T0>TD, then the cytotoxicity (LC) expressed as % of the control is calculated as: % LC=(TD−T0/T0)×100(2).

[1] = test system: swelling of rats' feet induced by Carrageenin; experiment: Carrageenin-induced swollen feet model; format: in vivo, SD rats;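 further: percent increase in foot volume over pre-inflammation volume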
Description: SD rats, male, weighing 163±18 g were used in the experiment. The tested animals are allowed to acclimate for a week. The rats drink water freely. The rats were randomly divided into 5 groups: control, positive control and 3 test groups, and each group had 8 rats. The dose for 3 groups of rats are 10, 20 and 40 mg/kg. Indometacin for the positive control is 10 mg/kg and fed once after modeling. The dose of CMC-Na for the control group is the same as each test group and fed into the stomach once a day before modeling for 5 days. The tested drug was fed into the stomach 10 minutes before the animal modeling (1 mL/100 g). The volumes of right foot of each rat were measured 0.5, 1, 2 and 4 hours before and after modeling. The volumes of the right hind feet were measured at a different time, 10 minutes after inflammation induced by subcutaneous injection (with syringe needle 7) of 0.05 mL of the 1% of Carrageenin/normal saline mixture into the feet. The Rate of swelling of the feet was calculated, compared with the controls and subject to a student t-test. Rate of swelling (E) (%)=Ltn−Lt0/Lt0×100% • Ltn: volume of foot after the inflammation • Lt0: volume of foot before the inflammation

[2] = test system: Fibronectin cellular content in ES2 cells; experiment: Cellular contents of Fibronectin and beta-actin (Western blot); format: cell-based, human; details: 24 hours
Description: Cells: ES2 (human ovarian carcinoma cells) were grew in RPMI 1640 medium. 1.5 million cells were seeded in a T25 flask and grown for 24 hours before drug-treatment. Drug-treatment: Cells cultures were replaced with fresh RPMI medium containing either 2.5 ul of DMSO (as control) [D]; or 10 ug/ml (final concentration) of Xanifolia-Y3 [Y]. After 24 hours, aliquot of culture medium was taken out for Fibronectin determination (Western blot method). The attached cells were suspended in 1 ml of SDS sample buffer (cell-extract).
Western Blot: Spent culture medium (0.6 ml) was mixed with SDS sample buffer (0.2 ml), and the cell-extract was boiled for 3 minutes before loading to SDS gel. Samples (80 ul/lane) were applied to a 6%-10% SDS gel and electrophoresis was conducted with 100 volts for 2 hours. Protein was transferred to a nitrocellulose membrane electrophoretically (30 min at 100 volts). The nitrocellulose blot was blocked with 5% non-fat dry milk in PBS (1-2 hours). The blot was then incubated with the first antibodies (mouse anti-FN, specific to human FN, SIGMA F0916 and mouse anti-beta actin, SIGMA A5316) and second antibody (Anti-mouse IgG AP conjugated, Promega S3721). The immuno-bands were developed with BCIP/NBT color development system (Promega S3771). Determination of Western band intensity: The band-images of Western blot were captured with a digital camera (3-5 pictures were taken per gel) and the intensity of bands was determined using “Image J” software.
FN concentrations were normalized with the cellular beta-Actin concentrations. Fibronectin secreted into medium and inside Y-treated cells were determined and compare to controls (DMSO-treated cells).

[3] = test system: ES2 cells attached to flasks; experiment: Inhibition of cell adhesion to flasks, ES2; format: cell-based
Description: (§1) Methods and Results. ES2 or Hey8A cells were plated in T25 flasks with medium containing 5 ug/ml of Xanifolia-Y. Cultures were incubated for 5 hours. Attached cells were removed from flasks by trypsinization and the amounts were counted. Compare to no drug controls, 86±4% of ES2 cells and 67±8% of Hey8A cells were found attached to flasks under this condition. At 5 ug/ml Xanifolia-Y, over 90% of unattached cells are alive as determined by the trypan Blue exclusion assay and by their ability to re-attach to flasks when plating in medium without Xanifolia-Y. However, with 10 ug/ml Xanifolia-Y, less than 40% of cells attached to flasks and many of them are dead cells.
as §1, with “Results:” for “Results.”

C/C=C(/C)C(=O)O[C@H]1[C@H](OC(=O)/C(C)=C\C)[C@@]2(CO)C(CC1(C)C)C1=CCC3[C@@]4(C)CC[C@H](O[C@@H]5OC(C(=O)O)[C@@H](O)C(O[C@@H]6O[C@@H](CO)C(O)C6O)C5O[C@@H]5OC(CO)[C@H](O)C(O)C5O)C(C)(C)C4CC[C@@]3(C)[C@]1(C)[C@@H](O)[C@H]2O (stereo partly drawn) [Xanifolia-Y, 3-O-[β-D-galactopyranosyl (1→2)]-α-L-arabinofuranosy (1→3)-β-D-glucuronopyranosyl-21,22-O-diangeloyl-3β, 15α, 16α, 21β, 22α, 28-hexahydroxyolean-12-ene]
IC50 ((lung)H460 cells): 7.5 µg/mL (≈ 6.57 µM)
Swelling rate after administration (%) ([1]; 10 mg/kg, 0.5 hour): 16.7%
Swelling rate after administration (%) ([1]; 10 mg/kg, 1 hour): 18.5%
Swelling rate after administration (%) ([1]; 10 mg/kg, 2 hours): 16.0%
Swelling rate after administration (%) ([1]; 10 mg/kg, 4 hours): 10.5%
Swelling rate after administration (%) ([1]; 20 mg/kg, 0.5 hour): 10.5%
Swelling rate after administration (%) ([1]; 20 mg/kg, 1 hour): 13.6%
Swelling rate after administration (%) ([1]; 20 mg/kg, 2 hours): 12.4%
Swelling rate after administration (%) ([1]; 20 mg/kg, 4 hours): 8.5%
Swelling rate after administration (%) ([1]; 40 mg/kg, 0.5 hour): 10.3%
Swelling rate after administration (%) ([1]; 40 mg/kg, 1 hour): 12.6%
Swelling rate after administration (%) ([1]; 40 mg/kg, 2 hours): 12.5%
Swelling rate after administration (%) ([1]; 40 mg/kg, 4 hours): 6.5%
cellular beta-actin content ([2]; 10 ug/ml): no change
decrease of Fibronectin cellular content ([2]; 10 ug/ml): 70%
activity at 10 µg/mL ([2]; Homo sapiens, ES-2, 10 ug/ml, read-out: Fibronectin cellular content, % of control): 30%
cells attached to flasks, compared to no drug controls ([3]; ES2 cells, 5 ug/ml, 5 hours): 86±4%
unattached cells alive (trypan Blue exclusion, re-attachment) ([3]; ES2 or Hey8A cells, 5 ug/ml): over 90%
cells attached to flasks ([3]; ES2 or Hey8A cells, 10 ug/ml): less than 40%
